Experimental data as given in publication PMC5412877, “Discovery of a PCAF Bromodomain Chemical Probe” (Angewandte Chemie (International Ed. in English), 2016).
Where “and” joins values, the source holds several entries; their conditions need not be identical. Identical values can stand only once. Like-named read-outs stand apart in the source and are kept apart here.

Columns and labels:
Type in all cases: binding
[1] = target: T1, PCAF Brd (Homo sapiens, UniProt Q92831); experiment: Differential scanning fluorimetry (DSF), PCAF Brd; conditions: compound concentration 10 μM
T1 construct: Human bromodomains were cloned, expressed and purified as previously described; made in house
T1 sequence (Q92831 723-827 limits assumed): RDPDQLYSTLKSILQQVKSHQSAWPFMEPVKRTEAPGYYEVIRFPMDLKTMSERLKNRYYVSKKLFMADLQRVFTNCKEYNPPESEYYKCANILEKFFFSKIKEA
Experimental: (§1) Protein Expression and Purification
(§2) Human bromodomains were cloned, expressed and purified as previously described.[1]
(§3) Differential Scanning Fluorimetry (DSF)
(§4) Thermal melting points were recorded using an Mx3005p Real Time PCR Machine (Stratagene).
(§5) Subject proteins were buffered in 10 mM HEPES at pH 7.5, 500 mM NaCl and assayed in a 96-well […]
(§6) plate at a final concentration of 2 μM in 20 μL volume. Compounds were then added to a final […]
(§7) concentration of 10 μM. SPYRO Orange (Molecular Probes) was used as a fluorescent probe at a […]
(§8) dilution of 1:1000. Excitation and emission filters for the SPYRO-Orange dye were set to 465 nm and […]
(§9) 590 nm, respectively. The temperature was raised with a step of 3 °C/min from 25 °C to 96 °C and […]
(§10) fluorescence readings were taken at each interval. Data was analysed as previously described.[2]
(§11) Bromodomain affinity selectivity panel of (S)-11
(§12) Supplemental Figure 1. DSF Selectivity panel of (S)-11 against 48 human Bromodomains. […]
(§13) ┼Mean ΔTm ± SEM (number of measurements= 2). Compound concentration: 10 μM […]
(§14) (1 picture or pasted object on this page, not shown here)

[2] = target: T1, PCAF Brd; experiment: Isothermal titration calorimetry (ITC), PCAF Brd
Experimental: Isothermal Titration Calorimetry (ITC)
Experiments were carried out on a Nano-ITC Standard Volume Instrument (TA Instruments). All experiments were carried out at 25 °C in 20 mM HEPES pH 7.5, 150 mM NaCl, 0.5 mM TCEP and 5% glycerol. Protein solutions were buffer exchanged by gel filtration. The titrations were conducted using an initial injection of 2 μL followed by 32 injections of 8 μL. Background dilution heat was substracted from each experiment. Thermodynamic parameters were calculated using ΔG = ΔH-T ΔS = -RTlnKB , where KD = 1/KB. ΔG, ΔH and ΔS are changes in free energy, enathalpy and entropy resepectively. Independent single site binding models were employed in data analysis.
Supplemental Figure 3. ITC trace of D-Moses and PCAF Brd […]

[3] = target: T2, GCN5L2 (Homo sapiens, UniProt Q92830); experiment: Differential scanning fluorimetry (DSF), GCN5 (GCN5L2) Brd; conditions: compound 10 μM; for ΔTm at 10 µM: read-out: GCN5L2 ΔTm (°C) (DSF)
T2 construct: made in house
T2 sequence (Q92830 728-832 limits assumed): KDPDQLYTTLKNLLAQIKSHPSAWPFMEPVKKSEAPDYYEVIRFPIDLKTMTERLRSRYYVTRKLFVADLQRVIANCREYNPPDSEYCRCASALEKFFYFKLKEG
Experimental: as §1, §2, §3, §4, §5, §6, §7, §8, §9, §10, §11, §12, §13, §14

[4] = Table 2, read-out: K D (nM) (ITC) PCAF Brd
[5] = Table 1, read-out: K D [μM] (ITC) PCAF Brd
[6] = Supplemental Table 3, compound concentration 30 μM, protein concentration 280-320 μM, read-out: PCAF KD (μM) (ITC)

| Structure (SMILES) | ΔT m [°C] PCAF (DSF) [1] | Kd [2, 4] [nM] | ΔTm at 10 µM [3] [°C] | Kd [2, 5] [nM] | Kd [2, 6] [nM] | GCN5L2 ΔTm (°C) (DSF) [3] |
| --- | --- | --- | --- | --- | --- | --- |
| Cc1ccc([C@@H]([C@H](C)Nc2nn3c(C)nnc3c3ccccc23)N(C)C)cc1 (relative stereo) [Compound 41] | 7.8 °C | 160 ± 54 | 4.3 | – | – | – |
| Cc1nnc2c3ccccc3c(N[C@@H](C)[C@H](c3ccc(C(F)(F)F)cc3)N(C)C)nn12 (relative stereo) [Compound 43] | 9.1 °C | 163 ± 117 | 7.2 | – | – | – |
| Cc1nnc2c3ccccc3c(NCCCN(C)C)nn12 [Compound 8] | – | – | – | > 30000 | – | – |
| Cc1nnc2c3ccccc3c(NCCCCN(C)C)nn12 [Compound 9] | 0.9 °C | – | 0.3 | > 30000 | – | – |
| Cc1nnc2c3ccccc3c(NCC(c3ccccc3)N(C)C)nn12 (stereo not drawn) [Compound 10] | 1.7 °C | – | – | 1000 | – | – |
| Cc1nnc2c3ccccc3c(NC(C)CN(C)C)nn12 (stereo not drawn) [Compound 11] | 5.6 °C | – | 2.5 | 300 ± 39 | 298 | – |
| CCC(CN(C)C)Nc1nn2c(C)nnc2c2ccccc12 (stereo not drawn) [Compound 12] | 3.3 °C | – | 1.1 | 1800 ± 230 | 1760 | – |
| Cc1nnc2c3ccccc3c(NC(CC(C)C)CN(C)C)nn12 (stereo not drawn) [Compound 13] | 0.9 °C and 0.85 °C | – | 1.1 | > 30000 | – | – |
| CCN(CC)CC(C)Nc1nn2c(C)nnc2c2ccccc12 (stereo not drawn) [Compound 14] | 0 °C | – | 0 | > 30000 | – | – |
| Cc1nnc2c3ccccc3c(NCC(C)N(C)C)nn12 (stereo not drawn) [Compound 15] | 4.6 °C | – | 1 | 7300 ± 1100 | – | – |
| CCC(CNc1nn2c(C)nnc2c2ccccc12)N(C)C (stereo not drawn) [Compound 16] | – | – | – | 6900 ± 1400 | – | – |
| COC(=O)c1ccc([C@@H]([C@H](C)Nc2nn3c(C)nnc3c3ccccc23)N(C)C)cc1 [Compound 40] | 9.6 °C | 133 ± 15 | 6.3 | – | – | – |
| Cc1nnc2c3ccccc3c(N[C@@H](C)[C@H](c3ccc(Cl)cc3)N(C)C)nn12 [Compound 42] | 6.2 °C | 223 ± 78 | 2.7 | – | – | – |
| COc1ccc([C@@H]([C@H](C)Nc2nn3c(C)nnc3c3ccccc23)N(C)C)cc1 [Compound 44] | 10.3 °C | 179 ± 48 | 6.8 | – | – | – |
| Cc1nnc2c3ccccc3c(NC3CCCN(C)C3=O)nn12 (stereo not drawn) [Compound 50] | 1.1 °C | – | 0.1 | – | – | – |
| Cc1nnc2c3ccccc3c(NC(CO)c3ccccc3)nn12 (stereo not drawn) [Compound 51] | 1.0 °C | – | 0 | – | – | – |
| Cc1nnc2c3ccccc3c(N[C@H]3CCCN(Cc4ccccc4)C3)nn12 [Compound 56] | 0.6 °C | – | 0.1 | – | > 30000 | – |
| COc1cccc(N2CC(Nc3nn4c(C)nnc4c4ccccc34)CC2=O)c1 (stereo not drawn) [Compound 57] | 0.4 °C | – | – | – | > 30000 | 0.1 |
| Cc1nnc2c3ccccc3c(NCC3COCCN3C)nn12 (stereo not drawn) [Compound 58] | 2.7 °C | – | 0.4 | – | – | – |
| CC(=O)O.Cc1nnc2c3ccccc3c(NCCN3CCCC3)nn12 [Compound 59] | 3.7 °C | – | – | – | 4300 | 0.7 |
| Cc1nnc2c3ccccc3c(NCC3CCCCN3C)nn12 (stereo not drawn) [Compound 60] | 2.9 °C | – | 1.1 | – | 1130 | – |

| Structure (SMILES) | ΔT m [°C] PCAF (DSF) [1] | Kd [2, 4] [nM] | ΔTm at 10 µM [3] [°C] | Kd [2, 5] [nM] | Kd [2, 6] [nM] | GCN5L2 ΔTm (°C) (DSF) [3] |
| --- | --- | --- | --- | --- | --- | --- |
| Cc1nnc2c3ccccc3c(N[C@H]3C[C@@H]4CC[C@H]3C4)nn12 [Compound 61] | 0.5 °C | – | – | – | – | 0 |
| Cc1nnc2c3ccccc3c(N3CCN(CCN4CCCCC4)CC3)nn12 [Compound 62] | 0.2 °C | – | 0.3 | – | > 30000 | – |
| CCN1CCCCC1CNc1nn2c(C)nnc2c2ccccc12 (stereo not drawn) [Compound 63] | 0.2 °C | – | 0 | – | – | – |
| Cc1nnc2c3ccccc3c(N[C@@H]3CCCN(Cc4ccccc4)C3)nn12 [Compound 64] | 1.1 °C | – | – | – | > 30000 | 0.5 |
| Cc1nnc2c3ccccc3c(N[C@@H]3CCCN(C(=O)OCc4ccccc4)C3)nn12 [Compound 65] | – | – | – | – | > 30000 | – |
| Cc1nnc2c3ccccc3c(N[C@H]3CCCC[C@@H]3N(C)C)nn12 [Compound 66] | 0.6 °C | – | – | – | > 30000 | 0.1 |
| Cc1nnc2c3ccccc3c(N[C@@H]3CCC[C@H]3N(C)C)nn12 [Compound 67] | 0.7 °C | – | 0.3 | – | 321 | – |
| Cc1nnc2c3ccccc3c(N3CCC(N(C)C)C3)nn12 (stereo not drawn) [Compound 68] | 0.8 °C | – | – | – | > 30000 | 0.1 |
| Cc1nnc2c3ccccc3c(NCCN3CCN(C)CC3)nn12 [Compound 69] | 0.9 °C | – | 0 | – | > 30000 | – |
| Cc1nnc2c3ccccc3c(NC(C)CN3CCC(C)CC3)nn12 (stereo not drawn) [Compound 70] | 0 °C | – | 0.1 | – | > 30000 | – |
| Cc1nnc2c3ccccc3c(NC(C)c3ccccn3)nn12 (stereo not drawn) [Compound 71] | – | – | – | – | 2300 | – |
| Cc1nnc2c3ccccc3c(NC(C)c3cnccn3)nn12 (stereo not drawn) [Compound 72] | – | – | – | – | > 30000 | – |
| Cc1nnc2c3ccccc3c(N3CCN4CCCCC4C3)nn12 (stereo not drawn) [Compound 73] | 0.5 °C | – | – | – | > 30000 | 0.2 |
| Cc1nnc2c3ccccc3c(N3CCCC(N(C)C)C3)nn12 (stereo not drawn) [Compound 75] | 0.4 °C | – | 0.2 | – | > 30000 | – |
| Cc1nnc2c3ccccc3c(N[C@H]3CCC[C@@H]3N(C)C)nn12 [Compound 76] | 7.3 °C | – | 2.4 | – | 168 | – |
| Cc1nnc2c3ccccc3c(N[C@@H](C)[C@H](O)c3ccccc3)nn12 [Compound 77] | 0.3 °C | – | 0.2 | – | – | – |
| Cc1nnc2c3ccccc3c(NCC(=O)c3ccccc3)nn12 [Compound 81] | 1.0 °C | – | – | – | – | 0.3 |
| CN(C)CCNc1nn2c(C(F)(F)F)nnc2c2ccccc12 [Compound 87] | – | – | – | – | > 30000 | – |
| Cc1nnc2c3ccccc3c(Cl)nn12 [Compound 94] | 0 °C | – | 0.2 | – | – | – |
| Cc1nnc2c3ccccc3c(NCCN3CCOCC3)nn12 [Compound 98] | 0.7 °C | – | 0.2 | – | – | – |
| Cc1nnc2c3ccccc3c(NCC3CCCOC3)nn12 (stereo not drawn) [Compound 99] | 3.8 °C | – | 1.5 | – | – | – |
